# Measured values taken from ChEMBL document CHEMBL5357008, “Novel Pyrazolopyridine Inhibitors of Monoacylglycerol Lipase for the Treatment of Neurodegenerative Diseases and Neuroinflammation” (ACS Med Chem Lett, 2024).
# Biological target: T1, Monoglyceride lipase (Homo sapiens, UniProt Q99685)
# T1 sequence (Q99685 whole entry): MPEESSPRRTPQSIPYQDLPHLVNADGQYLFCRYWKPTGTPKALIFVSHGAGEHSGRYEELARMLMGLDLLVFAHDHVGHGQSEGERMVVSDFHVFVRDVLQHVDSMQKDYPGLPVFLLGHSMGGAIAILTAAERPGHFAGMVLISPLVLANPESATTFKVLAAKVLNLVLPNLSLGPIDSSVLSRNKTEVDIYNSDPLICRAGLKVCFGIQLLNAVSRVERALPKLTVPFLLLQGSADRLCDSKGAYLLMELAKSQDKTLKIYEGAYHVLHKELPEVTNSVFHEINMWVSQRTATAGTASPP
# Assay: Inhibition of MAGL (unknown origin) using 2-arachidonoylglycerol as substrate preincubated with compound for 15 mins followed by substrate addition and measured after 30 mins by mass spectrometer analysis
row,SMILES,IC50
1,C[C@H]1c2nn(C)c(-c3cc(F)cc(F)c3)c2CCN1C(=O)c1cc(F)cc(OCC2CNC(=O)O2)c1Cl (stereo partly drawn),2 nM
2,COc1cccc(C(=O)N2CCc3c(nn(C)c3-c3cc(Cl)cc(CS(N)(=O)=O)c3)[C@@H]2C)c1Cl,27 nM
3,CC1c2nn(C)c(-c3cc(F)cc(F)c3)c2CCN1C(=O)c1cc(F)cc(OCC2CNC(=O)C2)c1Cl (stereo not drawn),5 nM
